Experimental data taken from BigSolDB 2.1.

CC(=O)Nc1ccccc1[N+](=O)[O-]
solubility (mole fraction)
Details	278.15 K	283.15 K	288.15 K	293.15 K	298.15 K	303.15 K	308.15 K	313.15 K	318.15 K	323.15 K
in 1,4-dioxane	–	–	0.13	0.147	0.165	0.186	0.211	0.244	0.284	0.343
in DMF	0.167	0.178	0.192	0.213	0.238	0.266	0.295	0.327	0.373	0.426
in NMP	0.195	0.215	0.239	0.268	0.299	0.33	0.367	0.404	0.445	0.491
in acetonitrile	0.0156	0.0176	0.021	0.0248	0.0302	0.0387	0.0511	0.0675	0.0932	0.124
in cyclohexane	–	0.00106	0.00133	0.00167	0.00216	0.00275	0.00357	0.00474	0.00634	0.0084
in ethanol	0.0143	0.0163	0.0188	0.0226	0.0276	0.0323	0.0382	0.0447	0.0516	0.0615
in ethyl acetate	0.0478	0.0545	0.0662	0.079	0.094	0.112	0.135	0.163	0.21	0.263
in ethylene glycol	0.00464	0.00517	0.00599	0.00714	0.00855	0.0103	0.0126	0.0155	0.0187	0.0224
in isobutanol	0.00896	0.00984	0.0115	0.0134	0.0162	0.0202	0.0246	0.0302	0.0374	0.0483
in isopropanol	0.00743	0.00851	0.00991	0.0121	0.0151	0.0184	0.0227	0.0279	0.036	0.0468
in methanol	0.0181	0.021	0.0248	0.0289	0.0331	0.0394	0.0463	0.0558	0.0703	0.0926
in n-butanol	0.00975	0.011	0.0127	0.016	0.0196	0.0232	0.028	0.0341	0.0422	0.0529
in n-heptanol	0.00627	0.00721	0.00829	0.0105	0.0129	0.0163	0.0209	0.0261	0.0337	0.042
in n-propanol	0.0129	0.0144	0.0167	0.0204	0.0245	0.0285	0.0331	0.0393	0.0468	0.0578
in water	9.9e-05	0.000128	0.00016	0.000201	0.000249	0.00032	0.000412	0.000521	0.000662	0.000824
